Reference: PMC6271731, “Multitarget Molecular Hybrids of Cinnamic Acids” (Molecules, 2014)
Where two headings read alike, the source gives them in different places. Marks after values point to notes of the source that are not given here.

Legend:
[1] = tested on: esterase; experiment: In vitro esterase activity on hybrids; format: in vitro ADME; details: 1 mM, phosphate buffer pH 7.8, 37 °C, 90 min and 24 h
Protocol: Representative hybrid molecules are subjected to an esterase activity in vitro. 100 μL of 1 mg/mL 0.001 N hydrochloric acid of esterase solution was added to 1,250 μL of phosphate buffer (0.1 M) pH 7.8 including the tested compounds (150 μL in DMSO, final concentration 1 mM) and incubated at 37 °C for 90 min. The incubated solution was allowed to set at room temperature. Then, the absorption was measured at 256 nm. The measurement was repeated after 24 h of incubation at 37 °C.

[2] = Inhibition of linoleic acid lipid peroxidation (AAPH); details: % inhibition at 100 μM; pH 7.4, 37 °C
Protocol: Production of conjugated diene hydroperoxide by oxidation of sodium linoleate in an aqueous dispersion is monitored at 234 nm. AAPH is used as a free radical initiator [12, 24]. Ten microlitres of the 16 mM sodium linoleate solution was added to the UV cuvette containing 930 μL of 0.05 M phosphate buffer, pH 7.4 prethermostated at 37 °C. The oxidation reaction was initiated at 37 °C under air by the addition of 40 mM AAPH solution (50 μL). Ten μL of the tested compounds were added in the mixture. Lipid oxidation was measured in the presence of the same level of DMSO. The rate of oxidation at 37 °C was monitored by recording the increase in absorption at 234 nm caused by conjugated diene hydroperoxides. The results were compared to the appropriate standard inhibitor trolox (63%) (Table 1).

[3] = molecular target: T1, pancreatic bovine trypsin (Bos taurus, UniProt P00760); experiment: Inhibition of trypsin induced proteolysis in vitro; format: biochemical; details: bovine albumin substrate, pH 7.6, 37 °C; read-out: IC50 μM Trypsin Inh.
T1 construct: purchased Sigma Chemical, Co. (St. Louis, MO, USA)
T1 sequence (P00760 24-246): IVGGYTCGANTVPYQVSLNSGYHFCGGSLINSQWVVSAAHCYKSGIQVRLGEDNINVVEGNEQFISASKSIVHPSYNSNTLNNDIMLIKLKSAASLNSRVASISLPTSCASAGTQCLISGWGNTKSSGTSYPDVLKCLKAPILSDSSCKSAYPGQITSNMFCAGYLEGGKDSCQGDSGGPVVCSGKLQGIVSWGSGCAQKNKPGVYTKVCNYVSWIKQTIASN
Text: All chemicals, solvents, chemical and biochemical reagents were of analytical grade and purchased from commercial sources (Merck, Merck KGaA, Darmstadt, Germany, Fluka Sigma-Aldrich Laborchemikalien GmbH, Hannover, Germany, Alfa Aesar, Karlsruhe, Germany and Sigma, St. Louis, MO, USA). Soybean lipoxygenase, pancreatic bovine trypsin, sodium linoleate, free radical DPPH and 2,2-azinobis-2-methyl-propanimidamine HCl (AAPH) were obtained from Sigma Chemical, Co. (St. Louis, MO, USA), carrageenin, type K, was commercially available. All starting materials were obtained from commercial sources and used without further purification.
The test was carried out according to a modified Kunitz method. Bovine albumin was used as substrate for trypsin. The reaction mixture consisted of 0.075 mg/mL trypsin (200 μL) and 780 μL of phosphate buffer pH 7.6 (including the tested compounds (20 μL in DMSO, final concentration 100 μM) preincubated at 37 °C for 20 min and then 1 mL of albumin (stock solution 6 g/100 mL in phosphate buffer 0.1 M, pH 7.6) was added and incubated at 37 °C for 30 min. After the incubation 1 mL of 5% trichloroacetic acid was added to the incubated solution to stop the enzyme’s reaction and allowed to set at room temperature for 1 h. Then the solution was filtered by filter paper and the absorption of the filtered solution was measured at 280 nm. Salicylic acid was used as a reference compound (Table 1).

[4] = molecular target: T2, soybean lipoxygenase (Glycine max, UniProt P08170); experiment: Soybean lipoxygenase inhibition in vitro; format: biochemical
T2 construct: purchased Sigma Chemical, Co. (St. Louis, MO, USA)
T2 sequence (P08170 1-839): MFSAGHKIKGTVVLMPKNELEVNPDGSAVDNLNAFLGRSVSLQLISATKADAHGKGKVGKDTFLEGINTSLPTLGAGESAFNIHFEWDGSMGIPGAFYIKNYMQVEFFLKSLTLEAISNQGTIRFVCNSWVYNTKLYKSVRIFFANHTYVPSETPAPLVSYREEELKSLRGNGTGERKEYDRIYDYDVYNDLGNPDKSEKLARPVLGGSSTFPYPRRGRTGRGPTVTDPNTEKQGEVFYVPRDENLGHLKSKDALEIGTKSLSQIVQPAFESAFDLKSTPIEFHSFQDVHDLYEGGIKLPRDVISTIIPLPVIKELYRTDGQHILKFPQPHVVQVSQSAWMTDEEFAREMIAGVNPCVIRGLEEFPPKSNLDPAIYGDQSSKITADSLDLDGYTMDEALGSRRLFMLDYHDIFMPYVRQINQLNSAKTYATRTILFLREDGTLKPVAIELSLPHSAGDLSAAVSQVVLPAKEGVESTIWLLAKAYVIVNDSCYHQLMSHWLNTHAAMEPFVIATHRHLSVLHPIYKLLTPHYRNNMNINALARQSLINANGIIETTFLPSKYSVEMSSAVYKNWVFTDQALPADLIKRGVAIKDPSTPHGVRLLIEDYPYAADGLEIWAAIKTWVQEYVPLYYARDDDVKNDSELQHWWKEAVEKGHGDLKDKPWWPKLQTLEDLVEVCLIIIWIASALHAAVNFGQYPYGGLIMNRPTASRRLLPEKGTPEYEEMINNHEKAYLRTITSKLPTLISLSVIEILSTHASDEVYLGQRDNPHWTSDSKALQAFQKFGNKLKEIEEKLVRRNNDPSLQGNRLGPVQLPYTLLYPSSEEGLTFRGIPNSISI
Protocol: DMSO solution of the tested compound was incubated with sodium linoleate (0.1 mM) and 0.2 mL of soybean lipoxygenase solution (1/9 × 10^−4 w/v in saline) in buffer pH 9 (tris) and at room temperature. […] The results are given in Table 1 expressed as IC50 values or % inhibition at 100 μM.

[5] = Lipophilicity as RM values by RP-TLC; format: physicochemical; details: methanol/water 70/30, 24 °C, average of at least five measurements
Text: Since lipophilicity is a significant physicochemical property determining distribution, bioavailability, metabolic activity and elimination, we tried to determine experimentally the lipophilicity of the new substances by a RPTLC method as RM values (Table 1) and to compare them with the corresponding theoretically calculated clog p values in n-octanol-buffer. This is considered to be a reliable, fast and convenient method for expressing lipophilicity. Lipophilicity (Table 2), was theoretically calculated as Clog p values in n-octanol-buffer by the CLOGP Programme of Biobyte Corp..
Reversed phase TLC (RP-TLC) was performed on silica gel plates impregnated with 5% (v/v) liquid paraffin in light petroleum ether. The mobile phase was a methanol/water mixture (70/30, v/v). The plates were developed in closed chromatography tanks saturated with the mobile phase at 24 °C. Spots were detected under UV light. RM values were determined from the corresponding Rf values (from five individual measurements) using the equation RM = log [(1/Rf) − 1] (Table 1).

[6] = tested on: carrageenin-induced rat paw oedema; experiment: Inhibition of the carrageenin-induced rat paw oedema; format: in vivo, Fisher-344 rats; details: 0.01 mmol/1 kg, i.p., 3.5 h after carrageenin
Protocol: (§1) Anti-inflammatory tests were conducted on Fisher-344 inbred rats of ca. 200 g body weight whereas antinociception and motor and sensory functions after sciatic nerve crash were performed on Wistar rats. Both sexes were used. Females pregnant were excluded. Each group was composed of 6 animals. The animals, which have been bred in our laboratory, were housed under standard conditions and received a diet of commercial food pellets and water ad libitum during the maintenance. Our studies were carried out in accordance with recognised guidelines on animal experimentation.
The tested compounds 0.01 mmol/kg body weight were suspended in water with few drops of Tween 80 and ground in a mortar before use. Controls received the liquid vehicle only. All the in vivo experiments were repeated at least in triplicate and were subjected to statistic analysis using the student’s t-test.
Oedema was induced in the right hind paw of Fisher 344 rats by the intradermal injection of 0.1 mL 2% carrageenin in water. Each group was composed of 6 animals which they were entirely fasted during the experiment period. The tested compounds 0.01 mmol/kg body weight, were given intraperitoneally simultaneously with the carrageenin injection. The rats were euthanized 3.5 h after carrageenin injection. The difference between the weight of the injected and not-injected paws was calculated for each animal. The change in paw weight was compared with that in control animals (treated with water) and expressed as a percent inhibition of the oedema (ICPE % values in Table 1). Indomethacin 0.01 mmol/kg was used as reference compound. ICPE % are the mean values from two different experiments with a standard error of the mean less than 10%.

[7] = tested on: acetic acid-induced writhing; experiment: Antinociceptive screen (writhing test); format: in vivo, Wistar rats; details: Rattus norvegicus, ip, 0.5 h, i.p. 30 min before 0.6% acetic acid, writhes counted over 30 min, read-out: % ANA (in vivo analgesic-antinociceptive activity)
Protocol: as §1
[…] Controls received the liquid vehicle only. All the in vivo experiments were repeated at least in triplicate and were subjected to statistic analysis using the student’s t-test.
The writhing reflex was used. The test compounds were administered i.p. 30 min prior to the i.p. administration of 1 mL/100 g body weight of 0.6% acetic acid. […] After 5 min, the number of stretches characterized by repeated contractions of the abdominal musculature accompanied by extension of the hind limbs was counted every 5 min for the next 30 min. […] The % antinociceptive activity (a:a) was calculated as: % a:a = (n − n'/n) × 100 (a: a analgesic activity, n average number of writhes of control group, n' average number in the test group).

[8] = tested on: sciatic nerve crush; experiment: Sciatic Functional Index after sciatic nerve crush; format: in vivo, Wistar rats
Text: SFI is the current standard for measuring functional recovery following rat sciatic nerve crush. Its calculation involves the measurement of wide-ranging relationships between feet and toes of the hindlimb of recovering animals. SFI values close to −100 indicate severe damage, while SFI values close to 0 indicate normal function. The treated rats improved their walk and the relationship between feet and toes of the crushed hindlimbs starting from day 14 to day 21.
One day prior to the surgery and the behavioral testing, Wistar rats were handled by the investigators and introduced to the testing environment for a brief period of time. Rats were anesthetized with chloral hydrate 4.5% (1 mL/100 g). […] After the exposure, the nerve was crushed once for 30 s at standardized force. The muscle was reapproximated and the skin incision was closed using 6 to 0 sutures. The examination of the loss of sensory and motor function in the operated limb established the crush completeness. Digits in the operated limb were pinched with a blunt forceps. Absence of foot withdrawal and vocalization was recorded as loss of sensory and motor function. Animals were placed under a heating lamp until they recovered from the anesthesia and they returned to their home cages.
The tested solutions were freshly prepared on surgery day (day 0).
[…] The day of the surgery is considered as day 0 [36, 37, 38].
In the present study, the plantar surfaces of the hindlimbs of the rats were impregnated with ink and then the animals were allowed to walk on a paper along a corridor, leaving footprints during walking.
A wooden corridor (1 m × 8 cm) with raised sidewalls was used. Two and a half white paper strips (40 × 7.5 cm) were placed along the corridor and were fixed with adhesive tape closely together and at the base and the sidewalls of the corridor. Each rat was trained to walk steadily along the corridor without stops until it made three at least successful efforts of continuous walking. The footprints were allowed to dry and were then converted into digital images using a computer and a high resolution scanner. The image processing was done by using the ImageJ. This is an open-source image analysis software created in 1997 by Rayne Rasband (National Institute of Health), widely used in medical applications, especially neuroscience, for measuring distances and surface and plotting the data. The footprints were analyzed as described by Bain et al. in measurements were included: • (i) print length (PL): distance from the heel to the third toe, • (ii) toe spread (TS) distance from the first to the fifth toe on both sides and • (iii) intermediate toe spread (ITS) the distance between the middle of the second and fourth toe
All measurements were taken both from the experimental (EPL, ETS, EIT) and the normal (NPL, NTS, NIT) side. The formula used to calculate SFI was the following: SFI = −38.3 (EPL − NPL)/NPL + 109.5 (ETS − NTS)/NTS + 13.3 (EIT − NIT)/NIT − 8.8

[9] = sodium linoleate 0.1 mM, tris buffer pH 9, room temperature, read-out: IC50 μM LOX Inh.
[10] = single i.p. dose 0.01 mmol/mL/kg, 8 h after surgery

SMILES	AAPH % (% inhibition of lipid peroxidation) [2] [%]	IC50 [4] [µM]	RM (±S.D.) [5]	% ICPE (carrageenin-induced rat paw oedema inhibition) [6]	inhibition in vivo at 0.01 mmol/0.1 kg [7] [%]	IC50 [4, 9] [µM]	also measured
O=C(/C=C/c1cccc(Oc2ccccc2)c1)Oc1cc(=O)oc2ccccc12 [Compound 2b, (E)-2-Oxo-2H-chromen-4-yl 3-(3-phenoxyphenyl)acrylate]	100	100	−0.661± 0.008	–	–	–	hydrolysis of the ester group by esterase [1]: hydrolyzed; IC50 [3]: 100 µM
O=c1cc(O)c2ccccc2o1 [Compound 4-HC, 4-hydroxycoumarin, reference compound]	100	–	–	62 * %	–	–	–
O=C(O)/C=C/c1ccc(OCc2ccc(Br)cc2)cc1 [II]	84	66	−0.41 ± 0.026	41.6 * %	67	–	% ICPE (carrageenin-induced rat paw oedema inhibition) ([6]; listed as acid II): 44%
O=C(O)/C=C/c1cccs1 [IV]	60	–	−0.56 ± 0.019	42.7 * %	–	98	–
COc1ccc2c(c1)c(CC(=O)O)c(C)n2C(=O)c1ccc(Cl)cc1 [Indomethacin, reference compound]	–	–	–	47 * %	–	–	% ICPE (carrageenin-induced rat paw oedema inhibition) ([6]; listed as indomethacin): 47%
CC(=O)Nc1ccc(O)cc1 [Paracetamol, 4-acetamidophenol, reference compound]	91	–	–	21 * %	66	82	% ICPE (carrageenin-induced rat paw oedema inhibition) ([6]; listed as paracetamol): 21%; SFI, Day before Crash ([8]; baseline before surgery and dosing): −12; SFI, Day-1 [8, 10]: −93.3; SFI, Day-7 [8, 10]: −93.3; SFI, Day-14 [8, 10]: −36; SFI, Day-21 [8, 10]: −18.5
